Tests used:
[1] = target: T1, human KCa3.1 channel (Homo sapiens, UniProt O15554+P0DP23); test: Inside-out patch-clamp on KCa3.1 channels expressed in HEK293 cells; format: cell-based; details: for response of KCa3.1 channels: inside-out patch; for Emax: normalized to 10 μM Ca2+
T1 construct: expressed in transfected cells; host or cells: HEK293
Description: The two newly synthesized compounds, 2o and 2q, were tested to determine whether they retained their subtype-selectivity. Neither 2o (FIG. 5A) nor 2q (FIG. 5B) elicited significant responses from the human KCa2.1 channel expressed in HEK293 cells. When compared with the responses from KCa2.2a channels to these two compounds, the differences became even more apparent (FIG. 5C), with the Emax values on KCa2.2a channels at ˜90%, whereas the Emax values on KCa2.1 channels were at ˜0% (FIG. 5D).
(§1) The effect of newly synthesized compounds on the KCa2.x/KCa3.1 channels was investigated as previously described (Nam, Y. W.; et al, Acta Physiol (Oxf) 2020, e13552; Nam, Y. W.; et al. Scientific reports 2018, 8 (1), 10749). Briefly, the rat KCa2.2a, human KCa2.1, human KCa2.3 or human KCa3.1 channels cDNA constructs were either generated in-house or through molecular cloning services (Genscript). The channel cDNAs, along with CaM and GFP, at a ratio of 7:4:2 (ORF ratios), were transfected into HEK293 cells by the calcium-phosphate method. KCa currents were recorded 1-2 days after transfection, with an Axon200B amplifier (Molecular Devices) at room temperature. The resistance of the patch electrodes ranged from 3-5 MΩ. The pipette solution contained (in mM): 140 KCl, 10 Hepes (pH 7.4), 1 MgSO4. The bath solution containing (in mM): 140 KCl, 10 Hepes (pH 7.2), 1 EGTA, 0.1 Dibromo-BAPTA, and 1 HEDTA was mixed with Ca^2+ to obtain the desired free Ca^2+ concentrations, calculated using the software by Chris Patton of Stanford University (https://somapp.ucdmc.ucdavis.edu/pharmacology/bers/maxchelator/webmaxc/webmaxcS.htm). […] Briefly, a standard curve was generated using the Ca^2+ buffers from the kit and a fluorescence Ca^2+ indicator. Then, the Ca^2+ concentrations of the bath solution were determined through interpolation on the standard curve.
(§2) High resistance seals (>1 GΩ) were formed before inside-out patches were obtained. […] Currents were recorded by repetitive 1-s-voltage ramps from −100 mV to +100 mV from a holding potential of 0 mV. […]
(§3) To measure the effect of CyPPA (Alomone Labs) and newly synthesized compounds, the intracellular face was exposed to bath solutions with 0.15 μM Ca^2+. One minute after switching of bath solutions, ten sweeps with a 1-s interval were recorded at a series of concentrations of compound in the presence of 0.15 μM Ca^2+. The maximal KCa2.x/KCa3.1 current in response to 10 μM Ca^2+ was then recorded.
Patch-clamp recordings were analyzed using Clampfit 10.5 (Molecular Devices LLC) and concentration-response curves were analyzed in GraphPad Prism 9.0.2 (GraphPad Software Inc.). […] EC50 values and Hill coefficients were determined by fitting the data points to a standard concentration-response curve (Y=100/(1+(X/EC50)^−Hill)). […]

[2] = target: T2, human KCa2.3 channels (Homo sapiens, UniProt P0DP23+Q9UGI6); test: Inside-out patch-clamp potentiation of KCa2.3 channels expressed in HEK293 cells; format: cell-based; details: for EC50: inside-out patch, HEK293, 0.15 μM Ca2+, read-out: EC50 on potentiating KCa2.3 channels
T2 construct: expressed in transfected cells; host or cells: HEK293
Description: The effects of the two newly synthesized compounds on human KCa2.3 channels (FIG. 7A) were examined.
as §1, §2
as §3, with “recorded. […]” for “recorded.”

response of KCa3.1 channels [1]	Emax [1] [%]	EC50 [2] [nM]	potency on KCa2.3 compared to KCa2.2a channels [2]	Structure (SMILES)
mostly insensitive	-0.79 ± 1.19	600 ± 35	–	Cc1cc(Nc2cc(Cl)ccc2F)nc(-n2nc(C)cc2C)n1 [Compound 2q, N-(5-Chloro-2-fluorophenyl)-2-(3,5-dimethyl-1H-pyrazol-1-yl)-6-methylpyrimidin-4-amine]
mostly insensitive	26.1 ± 7.67	190 ± 23	significantly smaller	Cc1cc(Nc2ccc(F)c(Cl)c2)nc(-n2nc(C)cc2C)n1 [Compound 2o, N-(3-Chloro-4-fluorophenyl)-2-(3,5-dimethyl-1H-pyrazol-1-yl)-6-methyl-pyrimidin-4-amine]
